# Like-named read-outs stand apart in the source and are kept apart here.
# Test system: several cell lines (Panel/Cell Line)
# Assay: GI50, TGI and LC50 of compound II-21 for several cell lines (Table 12)
# Conditions: 48-h exposure; for CC50 / GI50: Homo sapiens
structure (smiles),measurement,setting,value
C(=N/Nc1ncnc2sc3c(c12)CCCC3)/c1ccccn1 [II-21],CC50,"NCI-H460, 48 h, read-out: LC50 (M), Non-Small Cell Lung Cancer, NCI-H460",3.11e-05 M
same,GI50,"NCI-H522, 48 h, Non-Small Cell Lung Cancer, NCI-H522",0.419 µM
same,CC50,"NCI-H522, 48 h, read-out: LC50 (M), Non-Small Cell Lung Cancer, NCI-H522",> 0.0001 M
same,GI50,"NCI/ADR-RES, 48 h, Ovarian Cancer",0.427 µM
same,CC50,"NCI/ADR-RES, 48 h, read-out: LC50 (M), Ovarian Cancer, NCI/ADR-RES",> 0.0001 M
same,GI50,"OVCAR-3, 48 h, Ovarian Cancer, OVCAR-3",0.109 µM
same,CC50,"OVCAR-3, 48 h, read-out: LC50 (M), Ovarian Cancer, OVCAR-3",4.39e-05 M
same,GI50,"OVCAR-4, 48 h, Ovarian Cancer, OVCAR-4",0.431 µM
same,CC50,"OVCAR-4, 48 h, read-out: LC50 (M), Ovarian Cancer, OVCAR-4",> 0.0001 M
same,GI50,"OVCAR-5, 48 h, Ovarian Cancer, OVCAR-5",0.823 µM
same,CC50,"OVCAR-5, 48 h, read-out: LC50 (M), Ovarian Cancer, OVCAR-5",> 0.0001 M
same,GI50,"OVCAR-8, 48 h, Ovarian Cancer, OVCAR-8",0.481 µM
same,CC50,"OVCAR-8, 48 h, read-out: LC50 (M), Ovarian Cancer, OVCAR-8",> 0.0001 M
same,GI50,"RPMI-8226, 48 h, Leukemia, RPMI-8226",0.35 µM
same,CC50,"RPMI-8226, 48 h, read-out: LC50 (M), Leukemia, RPMI-8226",> 0.0001 M
same,GI50,"RXF 393, 48 h, Renal Cancer, RXF 393",0.423 µM
same,CC50,"RXF 393, 48 h, read-out: LC50 (M), Renal Cancer, RXF 393",4.53e-05 M
same,GI50,"SF-268, 48 h, CNS Cancer, SF-268",0.356 µM
same,CC50,"SF-268, 48 h, read-out: LC50 (M), CNS Cancer, SF-268",8.3e-05 M
same,GI50,"SF-295, 48 h, CNS Cancer, SF-295",0.313 µM
same,CC50,"SF-295, 48 h, read-out: LC50 (M), CNS Cancer, SF-295",> 0.0001 M
same,GI50,"SF-539, 48 h, CNS Cancer, SF-539",0.391 µM
same,CC50,"SF-539, 48 h, read-out: LC50 (M), CNS Cancer, SF-539",2.92e-05 M
same,GI50,"SK-MEL-2, 48 h, Melanoma, SK-MEL-2",7.51 µM
same,CC50,"SK-MEL-2, 48 h, read-out: LC50 (M), Melanoma, SK-MEL-2",6.78e-05 M
same,GI50,"SK-MEL-5, 48 h, Melanoma, SK-MEL-5",0.332 µM
same,CC50,"SK-MEL-5, 48 h, read-out: LC50 (M), Melanoma, SK-MEL-5",2.36e-05 M
same,GI50,"SK-MEL-28, 48 h, Melanoma, SK-MEL-28",0.422 µM
same,CC50,"SK-MEL-28, 48 h, read-out: LC50 (M), Melanoma, SK-MEL-28",5.46e-05 M
same,GI50,"SK-OV-3, 48 h, Ovarian Cancer, SK-OV-3",0.41 µM
same,CC50,"SK-OV-3, 48 h, read-out: LC50 (M), Ovarian Cancer, SK-OV-3",> 0.0001 M
same,GI50,"SN12C, 48 h, Renal Cancer",0.426 µM
same,CC50,"SN12C, 48 h, read-out: LC50 (M), Renal Cancer, SN12C",8.1e-05 M
same,GI50,"SNB-19, 48 h, CNS Cancer, SNB-19",0.767 µM
same,CC50,"SNB-19, 48 h, read-out: LC50 (M), CNS Cancer, SNB-19",> 0.0001 M
same,GI50,"SNB-75, 48 h, CNS Cancer, SNB-75",0.585 µM
same,CC50,"SNB-75, 48 h, read-out: LC50 (M), CNS Cancer, SNB-75",4.93e-05 M
same,GI50,"SW-620, 48 h, Colon Cancer, SW-620",0.561 µM
same,CC50,"SW-620, 48 h, read-out: LC50 (M), Colon Cancer, SW-620",5.95e-05 M
same,GI50,"T47D, 48 h, Breast Cancer, T-47D",0.0764 µM
same,CC50,"T47D, 48 h, read-out: LC50 (M), Breast Cancer, T-47D",> 0.0001 M
same,GI50,"TK-10, 48 h, Renal Cancer, TK-10",0.486 µM
same,CC50,"TK-10, 48 h, read-out: LC50 (M), Renal Cancer, TK-10",> 0.0001 M
same,GI50,"U-251, 48 h, CNS Cancer, U251",0.369 µM
same,CC50,"U-251, 48 h, read-out: LC50 (M), CNS Cancer, U251",3.48e-05 M
same,GI50,"UACC-62, 48 h, Melanoma, UACC-62",0.379 µM
same,CC50,"UACC-62, 48 h, read-out: LC50 (M), Melanoma, UACC-62",4.84e-05 M
same,GI50,"UACC-257, 48 h, Melanoma, UACC-257",0.355 µM
same,CC50,"UACC-257, 48 h, read-out: LC50 (M), Melanoma, UACC-257",4.17e-05 M
same,GI50,"UO-31, 48 h, Renal Cancer, UO-31",0.286 µM
same,CC50,"UO-31, 48 h, read-out: LC50 (M), Renal Cancer, UO-31",6.3e-05 M
same,TGI,"Leukemia, CCRF-CEM",0.769 µM
same,TGI,"Leukemia, HL-60(TB)",0.407 µM
same,TGI,"Leukemia, K-562",10.8 µM
same,TGI,"Leukemia, MOLT-4",0.774 µM
same,TGI,"Leukemia, RPMI-8226",12.5 µM
same,TGI,"Leukemia, SR",0.953 µM
same,TGI,"Melanoma, M14",0.599 µM
same,TGI,"Melanoma, MALME-3M",10.3 µM
same,TGI,"Melanoma, MDA-MB-435",25.1 µM
same,TGI,"Melanoma, SK-MEL-2",25.5 µM
same,TGI,"Melanoma, SK-MEL-5",1.72 µM
same,TGI,"Melanoma, SK-MEL-28",16.7 µM
same,TGI,"Melanoma, UACC-62",6.54 µM
same,TGI,"Non-Small Cell Lung Cancer, A549/ATCC",14.9 µM
same,TGI,"Non-Small Cell Lung Cancer, EKVX",20.5 µM
same,TGI,"Non-Small Cell Lung Cancer, HOP-62",17.7 µM
same,TGI,"Non-Small Cell Lung Cancer, HOP-92",31 µM
same,TGI,"Non-Small Cell Lung Cancer, NCI-H23",34.3 µM
same,TGI,"Non-Small Cell Lung Cancer, NCI-H226",16.2 µM
same,TGI,"Non-Small Cell Lung Cancer, NCI-H322M",35 µM
same,TGI,"Non-Small Cell Lung Cancer, NCI-H460",1.73 µM
same,TGI,"Non-Small Cell Lung Cancer, NCI-H522",23.2 µM
same,TGI,"Ovarian Cancer, IGROV1",28.9 µM
same,TGI,"Ovarian Cancer, NCI/ADR-RES",58.1 µM
same,TGI,"Ovarian Cancer, OVCAR-3",14.5 µM
same,TGI,"Ovarian Cancer, OVCAR-4",26.3 µM
same,TGI,"Ovarian Cancer, OVCAR-5",31.4 µM
same,TGI,"Ovarian Cancer, OVCAR-8",>100 µM
same,TGI,"Ovarian Cancer, SK-OV-3",29.2 µM
same,TGI,"Prostate Cancer, DU-145",15.1 µM
same,TGI,"Prostate Cancer, PC-3",71.1 µM
same,TGI,"Renal Cancer, 786-0",0.947 µM
same,TGI,"Renal Cancer, A498",8.81 µM
same,TGI,"Renal Cancer, ACHN",11 µM
same,TGI,"Renal Cancer, CAKI-1",14.8 µM
same,TGI,"Renal Cancer, RXF 393",10.6 µM
same,TGI,"Renal Cancer, SN12C",15.3 µM
same,TGI,"Renal Cancer, TK-10",56.6 µM
same,TGI,"Renal Cancer, UO-31",1.65 µM

# From patent US9061984B2 (University of Louisville Research Foundation, Inc., priority 2008, dated 2015)
